Values of other authors, collected in patent US20250207102A1, “METHODS FOR CO-CULTURING GENOTOXIC BACTERIA AND ORGANOIDS” (priority 2022, published 2025).

Q: Which results are given for Cc1cccc(-c2nn(C(=S)Nc3ccccc3)cc2-c2ccnc3ccccc23)n1 [A83-01]?
A: inhibition of ALK-1,-2,-3,-6 and MAPK activity (ALK-1,-2,-3,-6 and MAPK): only weakly inhibits; phosphorylation of Smad2 (Smad2): blocks phosphorylation of Smad2
